This is an account of results in US9233977B2, “Leucine-rich repeat kinase enzyme activity” (Merck Sharp & Dohme Corp., priority 2010, dated 2016).

The target in this assay is T1, LRRK2 G2019S mutant kinase (Homo sapiens, UniProt Q5S007, G2019S).
T1 construct: GST; purchased Invitrogen PV4882
Briefly: LRRK2 G2019S LanthaScreen TR-FRET kinase assay. It counts as biochemical. As to conditions: LRRK2 G2019S GST-tagged protein, 75 nM Fluorescein-ERM (LRRKtide), 100 μM ATP, 1 hour at room temperature; read-out: IC50 (potency). Here is the method:
The final solvent concentration in the assay was 1% DMSO. […] Generation of raw data and workup of data to derive the IC50 (potency) and maximal inhibition at concentrations tested were performed using Merck's Assay Data Analyzer (ADA) software.
The IC50 (potency) was evaluated for the example compounds presented above.
For orientation: TR-FRET usually uses a lanthanide donor and a delayed reading to cut background.

What is called IC50 is the concentration needed to halve the response being measured.

Structures are written as SMILES.

T1 sequence (Q5S007 whole entry G2019S): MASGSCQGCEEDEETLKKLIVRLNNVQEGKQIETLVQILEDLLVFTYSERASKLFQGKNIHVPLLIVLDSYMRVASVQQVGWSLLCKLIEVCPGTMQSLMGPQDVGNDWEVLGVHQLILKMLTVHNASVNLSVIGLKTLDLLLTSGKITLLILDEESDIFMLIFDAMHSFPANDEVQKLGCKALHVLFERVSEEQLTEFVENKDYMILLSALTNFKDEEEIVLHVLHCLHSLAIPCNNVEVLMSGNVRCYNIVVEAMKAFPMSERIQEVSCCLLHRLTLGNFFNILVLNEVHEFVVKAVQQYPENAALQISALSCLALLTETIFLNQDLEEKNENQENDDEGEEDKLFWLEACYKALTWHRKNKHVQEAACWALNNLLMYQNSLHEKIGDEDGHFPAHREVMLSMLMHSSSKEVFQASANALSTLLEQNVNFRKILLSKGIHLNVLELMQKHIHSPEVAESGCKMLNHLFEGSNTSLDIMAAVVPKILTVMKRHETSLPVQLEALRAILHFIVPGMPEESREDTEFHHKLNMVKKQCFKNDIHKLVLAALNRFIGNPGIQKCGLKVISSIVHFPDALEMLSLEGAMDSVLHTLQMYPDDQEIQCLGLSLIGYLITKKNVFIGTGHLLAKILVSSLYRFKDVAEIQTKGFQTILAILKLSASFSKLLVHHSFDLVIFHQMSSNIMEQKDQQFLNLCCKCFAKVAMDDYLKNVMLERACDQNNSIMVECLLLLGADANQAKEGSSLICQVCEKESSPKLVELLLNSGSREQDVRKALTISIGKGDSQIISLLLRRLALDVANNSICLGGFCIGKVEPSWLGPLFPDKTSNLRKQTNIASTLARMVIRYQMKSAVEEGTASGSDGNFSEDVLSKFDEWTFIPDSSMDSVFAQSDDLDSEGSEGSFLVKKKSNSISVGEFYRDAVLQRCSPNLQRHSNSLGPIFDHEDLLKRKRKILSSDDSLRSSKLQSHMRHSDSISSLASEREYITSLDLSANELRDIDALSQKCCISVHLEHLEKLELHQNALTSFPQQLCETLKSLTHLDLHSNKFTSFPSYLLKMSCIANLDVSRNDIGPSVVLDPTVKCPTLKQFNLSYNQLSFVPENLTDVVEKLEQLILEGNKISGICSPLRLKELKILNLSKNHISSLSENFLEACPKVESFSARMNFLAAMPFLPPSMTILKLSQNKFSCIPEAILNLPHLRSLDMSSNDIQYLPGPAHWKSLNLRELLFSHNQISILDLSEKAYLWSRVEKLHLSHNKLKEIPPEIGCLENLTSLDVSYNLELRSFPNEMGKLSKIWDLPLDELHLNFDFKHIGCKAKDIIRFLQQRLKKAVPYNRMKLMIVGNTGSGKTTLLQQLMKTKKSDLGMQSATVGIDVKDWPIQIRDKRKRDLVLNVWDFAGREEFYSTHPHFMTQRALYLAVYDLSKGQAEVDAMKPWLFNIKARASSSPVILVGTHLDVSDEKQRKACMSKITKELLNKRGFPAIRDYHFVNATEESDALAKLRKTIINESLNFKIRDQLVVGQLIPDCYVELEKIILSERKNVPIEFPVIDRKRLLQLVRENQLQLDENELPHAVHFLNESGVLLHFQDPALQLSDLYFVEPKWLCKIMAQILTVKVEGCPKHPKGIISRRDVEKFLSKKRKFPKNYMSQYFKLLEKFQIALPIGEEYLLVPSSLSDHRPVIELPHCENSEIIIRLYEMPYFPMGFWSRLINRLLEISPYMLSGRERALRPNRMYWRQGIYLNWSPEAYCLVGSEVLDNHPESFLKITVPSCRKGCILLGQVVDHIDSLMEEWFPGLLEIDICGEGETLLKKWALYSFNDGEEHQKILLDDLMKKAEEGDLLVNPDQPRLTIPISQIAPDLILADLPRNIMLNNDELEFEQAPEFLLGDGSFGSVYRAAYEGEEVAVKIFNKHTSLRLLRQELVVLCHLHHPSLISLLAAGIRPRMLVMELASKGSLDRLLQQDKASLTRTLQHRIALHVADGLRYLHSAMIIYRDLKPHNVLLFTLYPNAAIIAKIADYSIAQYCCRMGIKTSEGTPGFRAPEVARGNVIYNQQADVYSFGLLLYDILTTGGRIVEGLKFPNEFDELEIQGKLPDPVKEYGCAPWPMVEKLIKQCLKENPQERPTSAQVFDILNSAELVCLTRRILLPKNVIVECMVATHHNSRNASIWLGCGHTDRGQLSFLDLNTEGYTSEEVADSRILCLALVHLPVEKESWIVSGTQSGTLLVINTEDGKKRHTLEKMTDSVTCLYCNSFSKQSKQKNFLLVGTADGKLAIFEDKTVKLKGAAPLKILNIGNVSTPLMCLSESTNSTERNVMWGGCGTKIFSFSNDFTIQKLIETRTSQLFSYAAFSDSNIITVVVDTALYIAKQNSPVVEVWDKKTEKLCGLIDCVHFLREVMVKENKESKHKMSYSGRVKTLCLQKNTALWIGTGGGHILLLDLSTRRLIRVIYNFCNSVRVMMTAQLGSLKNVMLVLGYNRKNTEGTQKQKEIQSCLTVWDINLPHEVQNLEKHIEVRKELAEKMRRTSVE

Regarding `CSc1sc(-c2cc[nH]n2)c2c1C(=O)N(Cc1ccc(Br)cn1)CC2` [Example 57, 5-[(5-bromopyridin-2-yl)methyl]-3-(methylsulfanyl)-1-(1H-pyrazol-3-yl)-6,7-dihydrothieno[3,4-c]pyridin-4(5)-one], the 50% inhibitory concentration (IC50) is 3800 nM.

Consider `CSc1sc(-c2cc[nH]n2)c2c1C(=O)N(CCCCc1ccccc1)CC2` [Example 64, 5-[(4-phenyl)butyl]-3-(methylsulfanyl)-1-(1H-pyrazol-3-yl)-6,7-dihydrothieno[3,4-c]pyridin-4(5)-one], for which the half-inhibitory concentration (IC50) was 5000 nM. As for `CSc1sc(-c2cc[nH]n2)c2c1C(=O)NC1(CCC1)C2` [Example 5, 3′-(methylsulfanyl)-4′-oxo-1′-(1H-pyrazol-3-yl)-7′H-spiro[cyclobutane-1,6′-thieno[3,4-1]pyridine]-4′(5′H)-one], the figure is 160 nM; as for `CSc1sc(-c2cc[nH]n2)c2c1C(=O)N(CC1CCNC1)CC2` (stereo not drawn) [Example 62, 3-(methylsulfanyl)-1-(1H-pyrazol-3-yl)-5-(pyrrolidin-3-ylmethyl)-6,7-dihydrothieno[3,4-c]pyridin-4(5H)-one], 4300 nM; as for `CSc1sc(-c2cc[nH]n2)c2c1C(=O)N(CCCC#N)CC2` [Example 59, 4-[3-(methylsulfanyl)-4-oxo-1-(1H-pyrazol-3-yl)-6,7-dihydrothieno[3,4-]pyridin-5(4H)-yl]butanenitrile], 3700 nM. As for `O=C1NCCc2c(-c3cc[nH]n3)sc(SCC3CC3)c21` [Example 26, 3-[(cyclopropylmethyl)sulfanyl]-1-(1H-pyrazol-3-yl)-6,7-dihydrothieno[3,4-c]pyridin-4(5)-one], the figure is 300 nM; as for `CSc1sc(-c2cc[nH]n2)c2c1C(=O)N(Cc1ccncc1)CC2` [Example 72, 5-[(4-pyridyl)methyl]-3-(methylsulfanyl)-1-(1H-pyrazol-3-yl)-6,7-dihydrothieno[3,4-c]pyridin-4(5)-one], 7900 nM; as for `CCSc1sc(-c2cc[nH]n2)c2c1C(=O)NCC2` [Example 42, 3-ethylsulfanyl-1-(1H-pyrazol-3-yl)-6,7-dihydrothieno[3,4-c]pyridin-4(5)-one], 360 nM.

Turning to `CSc1sc(-c2cc[nH]n2)c2c1C(=O)N(Cc1cccnc1Cl)CC2` [Example 58, 5-[(2-chloropyridin-3-yl)methyl]-3-(methylsulfanyl)-1-(1H-pyrazol-3-yl)-6,7-dihydrothieno[3,4-c]pyridin-4(5)-one], the concentration for half-maximal inhibition (IC50) turned out to be 3000 nM. Under `CNc1sc(-c2cc[nH]n2)c2c1C(=O)NCC2` [Example 91, 3-(methylamino)-(1H-pyrazol-3-yl)-6,7-dihydrothieno[3,4-c]pyridin-4(5H)-one] stands 1400 nM.

For `CSc1sc(-c2cc[nH]n2)c2c1C(=O)NCC2` [Example 1, 3-(Methylsulfanyl)-1-(1H-pyrazol-3-yl)-6,7-dihydrothieno[3,4-c]pyridin-4(5H)-one], the half-maximal inhibitory concentration (IC50) stood at 460 nM.

Consider `CSc1sc(-c2cc[nH]n2)c2c1C(=O)N(C)CC2` [Example 75, 5-methyl-3-(methylsulfanyl)-1-(1H-pyrazol-3-yl)-6,7-dihydrothieno[3,4-c]pyridin-4(5)-one], for which the half-maximal inhibitory concentration (IC50) came to 3300 nM. As to `CNc1sc(-c2cc[nH]n2)c2c1C(=O)N[C@@H](C)C2` [Example 99, (6S)-3-(methylamino)-6-methyl-1-(1H-pyrazol-3-yl)-6,7-dihydrothieno[3,4-c]pyridin-4(5H)-one], the half-maximal inhibitory concentration (IC50) came to 1200 nM. On to `NCCSc1sc(-c2cc[nH]n2)c2c1C(=O)NCC2` [Example 40], for which the concentration for half-maximal inhibition (IC50) came to 4700 nM. As for `CSc1sc(-c2cc[nH]n2)c2c1C(=O)N(CCc1ccccn1)CC2` [Example 78, 3-(methylsulfanyl)-5-[2-(2-pyridyl)ethyl]-1-(1H-pyrazol-3-yl)-6,7-dihydrothieno[3,4-c]pyridin-4(5)-one], the figure is 5700 nM; as for `O=C1NCCc2c(-c3cc[nH]n3)sc(SCCO)c21` [Example 47], 580 nM; as for `CNc1sc(-c2cc[nH]n2)c2c1C(=O)N[C@H](C)C2` [Example 100, (6R)-3-(methylamino)-6-methyl-1-(1H-pyrazol-3-yl)-6,7-dihydrothieno[3,4-c]pyridin-4(5H)-one], 3100 nM. For the compound `CC(C)CC1Cc2c(-c3cc[nH]n3)sc(SC3CCCC3)c2C(=O)N1` (stereo not drawn) [Example 34, 6-(2-methylpropyl)-3-(cyclopentylsulfanyl)-1-(1H-pyrazol-3-yl)-6,7-dihydrothieno[3,4-c]pyridin-4(5)-one], the half-maximal inhibitory concentration (IC50) worked out at 110 nM.

Turning to `CSc1sc(-c2cc[nH]n2)c2c1C(=O)NC(C(F)(F)F)C2` (stereo not drawn) [Example 9, 6-trifiuoromethyl-3-(methylsulfanyl)-1-(1H-pyrazol-3-yl)-6,7-dihydrothieno[3,4-c]pyridin-4(5)-one], the IC50 worked out at 190 nM. Under `CSc1sc(-c2cc[nH]n2)c2c1C(=O)N(C(C)C)CC2` [Example 54, 3-(Methylsulfanyl)-5-(propan-2-yl)-1-(1H-pyrazol-3-yl)-6,7-dihydrothieno[3,4-c]pyridin-4(5H)-one] stands 3500 nM; under `CCN1CCc2c(-c3cc[nH]n3)sc(SC)c2C1=O` [Example 76, 5-ethyl-3-(methylsulfanyl)-1-(1H-pyrazol-3-yl)-6,7-dihydrothieno[3,4-c]pyridin-4(5)-one], 2200 nM; under `CSc1sc(-c2cc[nH]n2)c2c1C(=O)N(C(=O)OC(C)(C)C)C(C)C2` (stereo not drawn) [Example 4], 4800 nM. For the compound `O=C1NCCc2c(-c3cc[nH]n3)sc(SC3CCCCC3)c21` [Example 45, 3-(cyclohexylsulfanyl)-1-(1H-pyrazol-3-yl)-6,7-dihydrothieno[3,4-c]pyridin-4(5)-one], the half-inhibitory concentration (IC50) is 380 nM. Under `CSc1sc(-c2cc[nH]n2)c2c1C(=O)N(CCN1CCCCC1)CC2` [Example 80, 3-(methylsulfanyl)-5-[2-(piperidin-1-yl)ethyl]-1-(1H-pyrazol-3-yl)-6,7-dihydrothieno[3,4-c]pyridin-4(5)-one] stands 7800 nM; under `C[C@H]1Cc2c(-c3cc[nH]n3)sc(SCC(=O)O)c2C(=O)N1` [Example 51, (6S)-6-methyl-1-{[4-oxo-1-(1H-pyrazol-3-yl)-4,5,6,7-tetrahydrothieno[3,4-c]pyridin-3-yl]sulfanyl}acetic acid], 2200 nM. As for `CCC(C)CSc1sc(-c2cc[nH]n2)c2c1C(=O)N[C@@H](C)C2` (stereo partly drawn) [Example 48], the figure is 55 nM. As for `CSc1sc(-c2cc[nH]n2)c2c1C(=O)N(CCCCC#N)CC2` [Example 70, 5-[3-(methylsulfanyl)-4-oxo-1-(1H-pyrazol-3-yl)-6,7-dihydrothieno[3,4H)-yl]pentanenitrile], the figure is 2500 nM; as for `CSc1sc(-c2cc[nH]n2)c2c1C(=O)NC[C@@H]2C` [Example 21, (7R)-7-methyl-3-(methylsulfanyl)-1-(1H-pyrazol-3-yl)-6,7-dihydrothieno[3,4-c]pyridin-4(5)-one], 160 nM. For the compound `O=C1NC2(CCC2)Cc2c(-c3cc[nH]n3)sc(NC3CCCC3)c21` [Example 88, 3′-(cyclopentylamino)-4′-oxo-1′-(1H-pyrazol-3-yl)-7′H-spiro[cyclobutane-1,6′-thieno[3,4-1]pyridine]-4′(5′H)-one], the half-inhibitory concentration (IC50) turned out to be 120 nM. As for `CCCCNCCSc1sc(-c2cc[nH]n2)c2c1C(=O)NCC2` [Example 37, 3-{[2-(butylamino)ethyl]sulfanyl}-1-(1H-pyrazol-3-yl)-6,7-dihydrothieno[3,4-c]pyridin-4(5)one], the figure is 5200 nM. For `O=C1NCCc2c(-c3cc[nH]n3)sc(Sc3ccccc3)c21` [Example 53, 3-phenylsulfanyl-1-(1H-pyrazol-3-yl)-6,7-dihydrothieno[3,4-c]pyridin-4(5)-one], the IC50 was found to be 1500 nM. As for `CSc1sc(-c2cc[nH]n2)c2c1C(=O)N(c1ccccc1F)CC2` [Example 85, 5-(2-fluorophenyl)-3-(methylsulfanyl)-1-(1H-pyrazol-3-yl)-6,7-dihydrothieno[3,4-c]pyridin-4(5)-one], the figure is 3100 nM; as for `CNc1sc(-c2cc[nH]n2)c2c1C(=O)NC(Cc1ccccc1)C2` (stereo not drawn) [Example 93, 3-(methylamino)-6-benzyl-1-(1H-pyrazol-3-yl)-6,7-dihydrothieno[3,4-c]pyridin-4(5H)-one], 330 nM. For the compound `CSc1sc(-c2cc[nH]n2)c2c1C(=O)N[C@H](c1ccc(F)cc1)C2` [Example 18, (6S)-3-(methylsulfanyl)-6-(4-fluorophenyl)-1-(1H-pyrazol-3-yl)-6,7-dihydrothieno[3,4-c]pyridin-4(5)-one], the IC50 turned out to be 85 nM. Under `CSc1sc(-c2cc[nH]n2)c2c1C(=O)NC1(CC1)C2` [Example 7, 3′-(methylsulfanyl)-4′-oxo-1′-(1H-pyrazol-3-yl)-7′H-spiro[cyclopropanc-1,6′-thieno[3,4-1]pyridine]-4′(5′H)-one] stands 350 nM; under `CCCSc1sc(-c2cc[nH]n2)c2c1C(=O)NCC2C` (stereo in doubt) [Example 28, (7S)-7-methyl-3-(propylsulfanyl)-1-(1H-pyrazol-3-yl)-6,7-dihydrothieno[3,4-c]pyridin-4(5)-one], 42 nM; under `C[C@@H]1Cc2c(-c3cc[nH]n3)sc(SCC(=O)O)c2C(=O)N1` [Example 52, (6R)-6-methyl-1-{[4-oxo-1-(1H-pyrazol-3-yl)-4,5,6,7-tetrahydrothieno[3,4-c]pyridin-3-yl]sulfanyl}acetic acid], 2700 nM. Under `CSc1sc(-c2cc[nH]n2)c2c1C(=O)NC(Cc1ccccc1)C2` (stereo not drawn) [Example 2, 6-benzyl-3-(methylsulfanyl)-1-(1H-pyrazol-3-yl)-6,7-dihydrothieno[3,4-c]pyridin-4(5)-one] stands 260 nM; under `CSc1sc(-c2cc[nH]n2)c2c1C(=O)N[C@H](c1cccnc1)C2` [Example 19, (6S)-3-(methylsulfanyl)-6-(3-pyridyl)-1-(1H-pyrazol-3-yl)-6,7-dihydrothieno[3,4-c]pyridin-4(5)-one], 1500 nM.
